Reference: US20190100534A1, “Cephem Compounds with Latent Reactive Groups” (Gladius Pharmaceuticals, Inc., priority 2017, published 2019)

Assays:
Type in all cases: cell-based
[1] = test system: Isogenic E. coli J58 strain carrying KPC-2; assay: MIC determination, isogenic E. coli strains; conditions: Escherichia coli, 18 h, read-out: Mimimum Inhibitory Concentrations, KPC-2
Protocol: (§1) Sterile technique was used throughout these experiments. Suspensions of organisms were removed from storage (−80° C.) and partially thawed. Partially thawed organisms (1 μL) were inoculated into 3 mL sterile LB Broth in a sterile culture tube and capped, then cultured at 37° C. with shaking for 4-5 hours until the optical density at 600 nm (OD600) was greater than 0.1 on a single beam spectrophotometer.
(§2) The concentration of organisms was adjusted to 0.08-0.1 OD600 (0.5 McFarland units) by dilution with sterile cation-adjusted Meuller-Hinton (CAMH) broth. The suspensions were used within 30 minutes of preparation.
(§3) A stock solution was made of each test compound by measuring 6.4 mg of the compound on an analytical balance and dissolving it in DMSO (1 mL) to get a transparent solution. The solutions were stored at −20° C. and thawed prior to use.
(§4) Sterile CAMH broth (200 μL) containing 20 μM Apo-Transferrin was pipetted into the first row of 8 columns of a sterile, round-bottomed, transparent, 96-well microplate using an 8-channel pipette equipped with sterile tips. One hundred μL was pipetted into the wells of the remaining 11 rows.
(§5) With an 8-channel pipette equipped with sterile tips, 100 μL of the first row solution was transferred to the second row and mixed. The process was repeated for the second to third rows and continued through row 11. One hundred μL from row 11 was removed and discarded so that all 12 rows contained 100 μL. Row 12 contained no compound and rows 1-11 contained 64, 32, 16, 8, 4, 2, 1, 0.5, 0.25, 0.125, […] of a given compound.
(§6) Inoculant suspensions (0.5 μL) were added to the 12 wells of each column. The plates were then covered and incubated at 37° C. overnight for 18 hours.
(§7) For each organism the MIC was determined by identifying the transparent well with the lowest test compound concentration.
(§8) KPC-2 and KPC-3 (Class A, Group 2f, carbapenemases);
(§9) The gene sequence for each beta-lactamase enzyme was synthesized and inserted into the pBC-SK(+) plasmid by GenScript, a commercial service. E. coli J53 was transformed with each plasmid via electroporation and resistant transformants were selected on agar plates containing 50 micrograms/mL ampicillin. The selected transformants were stored at −80 degrees C. in 20% glycerol.

[2] = test system: Isogenic E. coli J58 strain carrying KPC-3; assay: MIC determination, isogenic E. coli strains; conditions: Escherichia coli, 18 h, read-out: Mimimum Inhibitory Concentrations, KPC-3
Protocol: as §1, §2, §3, §4, §5, §6, §7, §8, §9

[3] = test system: Isogenic E. coli J58 strain carrying VIM-2; assay: MIC determination, isogenic E. coli strains; conditions: Escherichia coli, 18 h, read-out: Mimimum Inhibitory Concentrations, VIM-2
Protocol: as §1, §2, §3, §4, §5, §6, §7
VIM-2 (Group 3a carbapenemase, metallo-beta-lactamase); and
as §9

[4] = test system: Isogenic E. coli J58 strain carrying NDM-1; assay: MIC determination, isogenic E. coli strains; conditions: Escherichia coli, 18 h, read-out: Mimimum Inhibitory Concentrations, NDM-1
Protocol: as §1, §2, §3, §4, §5, §6, §7
NDM-1 (Group 3a carbapenemase, broad spectrum divalent Zn^++ metallo-Beta-Lactamase);
as §9

[5] = test system: Isogenic E. coli J58 strain carrying IMP-1; assay: MIC determination, isogenic E. coli strains; conditions: Escherichia coli, 18 h, read-out: Mimimum Inhibitory Concentrations, IMP-1
Protocol: as §1, §2, §3, §4, §5, §6, §7
IMP-1 (Group 3a carbapenemase, metallo-beta-Lactamase).
as §9

[6] = test system: Isogenic E. coli J58 strain carrying CTX-M-15; assay: MIC determination, isogenic E. coli strains; conditions: Escherichia coli, 18 h, read-out: Mimimum Inhibitory Concentrations, CTX-M-15
Protocol: as §1, §2, §3, §4, §5, §6, §7
(§10) CTX-M-14 and CTX-M-15 (Class A, Group 2be beta-lactamases, hydrolyzes extended spectrum cephalosporins and monobactams);
as §9

[7] = test system: Isogenic E. coli J58 strain carrying CTX-M-14; assay: MIC determination, isogenic E. coli strains; conditions: Escherichia coli, 18 h, read-out: Mimimum Inhibitory Concentrations, CTX-M-14
Protocol: as §1, §2, §3, §4, §5, §6, §7, §10, §9

[8] = test system: Isogenic E. coli J58 strain carrying TEM-26; assay: MIC determination, isogenic E. coli strains; conditions: Escherichia coli, 18 h, read-out: Mimimum Inhibitory Concentrations, TEM-26
Protocol: as §1, §2, §3, §4, §5, §6, §7
TEM-26 (Group 2be beta-lactamase, hydrolyzes extended spectrum cephalosporins and monobactams), [25];
as §9

[9] = test system: Isogenic E. coli J58 strain carrying DHA-1; assay: MIC determination, isogenic E. coli strains; conditions: Escherichia coli, 18 h, read-out: Mimimum Inhibitory Concentrations, DHA-1
Protocol: as §1, §2, §3, §4, §5, §6, §7, §9

E. coli J53 Alone = assay: MIC determination, isogenic E. coli strains
Protocol: as §1, §2, §3, §4, §5, §6, §7, §9

[10] = test system: Pseudomonas aeruginosa PA (URMC-3); assay: MIC determination; conditions: Pseudomonas aeruginosa, 18 h, read-out: Minimum Inhibitory Concentrations, PA (URMC-3)
Protocol: as §1, §2, §3, §4, §5, §6, §7

[11] = test system: Pseudomonas aeruginosa PA (URMC-2); assay: MIC determination; conditions: Pseudomonas aeruginosa, 18 h, read-out: Minimum Inhibitory Concentrations, PA (URMC-2)
Protocol: as §1, §2, §3, §4, §5, §6, §7

[12] = test system: Pseudomonas aeruginosa PA-RR-(purple Fre D); assay: MIC determination; conditions: Pseudomonas aeruginosa, CAMH broth, 20 μM Apo-Transferrin, 37° C., 18 hours, read-out: Minimum Inhibitory Concentrations, PA-RR-(purple Fre D)
Protocol: as §1, §2, §3, §4, §5, §6, §7

[13] = test system: Pseudomonas aeruginosa PA-RR-(G7305586); assay: MIC determination; conditions: Pseudomonas aeruginosa, 18 h, read-out: Minimum Inhibitory Concentrations, PA-RR-(G7305586)
Protocol: as §1, §2, §3, §4, §5, §6, §7

[14] = test system: Pseudomonas aeruginosa (PA); assay: MIC determination; conditions: Pseudomonas aeruginosa, 18 h, read-out: Minimum Inhibitory Concentrations, PA
Protocol: as §1, §2, §3, §4, §5, §6, §7

[15] = test system: Pseudomonas aeruginosa PA-RR-(G7294437); assay: MIC determination; conditions: Pseudomonas aeruginosa, 18 h, read-out: Minimum Inhibitory Concentrations, PA-RR-(G7294437)
Protocol: as §1, §2, §3, §4, §5, §6, §7

[16] = test system: Pseudomonas aeruginosa PA-RR-(98023895); assay: MIC determination; conditions: Pseudomonas aeruginosa, 18 h, read-out: Minimum Inhibitory Concentrations, PA-RR-(98023895)
Protocol: as §1, §2, §3, §4, §5, §6, §7

[17] = test system: Pseudomonas aeruginosa PA-RR-(G8062859); assay: MIC determination; conditions: Pseudomonas aeruginosa, 18 h, read-out: Minimum Inhibitory Concentrations, PA-RR-(G8062859)
Protocol: as §1, §2, §3, §4, §5, §6, §7

[18] = test system: Pseudomonas aeruginosa PA (RR-2); assay: MIC determination; conditions: Pseudomonas aeruginosa, 18 h, read-out: Minimum Inhibitory Concentrations, PA (RR-2)
Protocol: as §1, §2, §3, §4, §5, §6, §7

[19] = test system: Pseudomonas aeruginosa PA-RR-(980151052); assay: MIC determination; conditions: Pseudomonas aeruginosa, 18 h, read-out: Minimum Inhibitory Concentrations, PA-RR-(980151052)
Protocol: as §1, §2, §3, §4, §5, §6, §7

[20] = test system: Pseudomonas aeruginosa PA (RR-1); assay: MIC determination; conditions: Pseudomonas aeruginosa, 18 h, read-out: Minimum Inhibitory Concentrations, PA (RR-1)
Protocol: as §1, §2, §3, §4, §5, §6, §7

[21] = test system: Pseudomonas aeruginosa PA-RR-(G7304100); assay: MIC determination; conditions: Pseudomonas aeruginosa, 18 h, read-out: Minimum Inhibitory Concentrations, PA-RR-(G7304100)
Protocol: as §1, §2, §3, §4, §5, §6, §7

[22] = test system: Isogenic E. coli J58 strain carrying SHV-1; assay: MIC determination, isogenic E. coli strains; conditions: Escherichia coli, 18 h, read-out: Mimimum Inhibitory Concentrations, SHV-1
Protocol: as §1, §2, §3, §4, §5, §6, §7
SHV-1 (Class A, Group 2b beta-lactamase, hydrolyzes penicillins and early cephalosporins);
as §9

For `CC[N+]1(Cc2ccc(C=CC3=C(C(=O)O)N4C(=O)[C@@H](NC(=O)/C(=N\OC(C)(C)C(=O)O)c5csc(N)n5)[C@H]4SC3)cc2)CCc2cc(O)c(O)cc2C1` (mixture of isomers) [Compound 423, 2-(4-((E/Z)-2-((6R,7R)-7-((Z)-2-(2-aminothiazol-4-yl)-2-(((2-carboxypropan-2-yl)oxy)imino)acetamido)-2-carboxy-8-oxo-5-thia-1-azabicyclo[4.2.0]oct-2-en-3-yl)vinyl)benzyl)-2-ethyl-6,7-dihydroxy-1,2,3,4-tetrahydroisoquinolin-2-ium], the MIC [1] was 8 µg/mL, the MIC [2] was 4 µg/mL and the MIC [3] was 0.5 µg/mL. It also gave an MIC [4] greater than 64 µg/mL, an MIC [5] of 32 µg/mL and an MIC [6] of 2 µg/mL. The MIC [7] was 2 µg/mL, the MIC [8] was 2 µg/mL and the MIC [9] was 1 µg/mL. The MIC (E. coli J53 Alone; Escherichia coli, J53ALONE, 18 h, read-out: Mimimum Inhibitory Concentrations, J53 Alone) was 0.25 µg/mL, the “Mimimum Inhibitory Concentrations, J53 Alone” value (E. coli J53 Alone; J53 Alone, Table 4-2, CAMH broth, 20 μM Apo-Transferrin, 37° C., 18 hours) was 0.25 microgram/mL and the MIC [10] was no more than 0.06 µg/mL. The MIC [11] was 2 µg/mL, the MIC [12] was 1 µg/mL and the MIC [13] was 8 µg/mL. For the same compound, the MIC [14] was 2 µg/mL, the MIC [15] was 0.5 µg/mL and the MIC [16] was 8 µg/mL. It also gave an MIC [17] of 2 µg/mL, an MIC [18] of 2 µg/mL and an MIC [19] of 2 µg/mL. For the same compound, the MIC [20] was 2 µg/mL, the MIC [21] was no more than 0.06 µg/mL and the MIC [22] was 2 µg/mL.
